Consider 1 compound from PMC2064598 (The Journal of Cell Biology, 2006).

The target in one experiment is T1, hGrA (Homo sapiens, UniProt P12544).
T1 sequence (P12544 29-262): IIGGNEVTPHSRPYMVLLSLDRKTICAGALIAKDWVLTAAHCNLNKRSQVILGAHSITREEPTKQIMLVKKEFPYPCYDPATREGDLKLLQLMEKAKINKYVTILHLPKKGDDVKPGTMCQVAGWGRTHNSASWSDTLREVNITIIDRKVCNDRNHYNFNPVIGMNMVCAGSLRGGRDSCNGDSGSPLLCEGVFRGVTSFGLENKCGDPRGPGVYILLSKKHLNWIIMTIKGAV
The experiment can be described thus: absorbance progress curve. The format is biochemical.

The target in another experiment is T2, mGrA (Mus musculus, UniProt P11032).
T2 sequence (P11032 29-260): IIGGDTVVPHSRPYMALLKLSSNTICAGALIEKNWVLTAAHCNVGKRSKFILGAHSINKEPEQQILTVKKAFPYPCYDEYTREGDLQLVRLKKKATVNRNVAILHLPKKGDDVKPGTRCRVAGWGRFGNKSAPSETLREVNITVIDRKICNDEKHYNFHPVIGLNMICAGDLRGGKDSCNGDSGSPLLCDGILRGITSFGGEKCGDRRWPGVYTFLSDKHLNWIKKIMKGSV
The experiment can be described thus: absorbance progress curve. It is filed as biochemical.

Regarding `NCCCC[C@H](NC(=O)OCc1ccccc1)C(=O)SCc1ccccc1` [benzyloxy-carbonyl-Lys-thiobenzyl ester], the specific activity result at hGrA is “Progress curves of mGrA (closed boxes) and hGrA (open boxes) cleaving benzyloxy-carbonyl-Lys-thiobenzyl ester”; at mGrA, “Progress curves of mGrA (closed boxes) and hGrA (open boxes) cleaving benzyloxy-carbonyl-Lys-thiobenzyl ester”.
